Drawing on ChEMBL document CHEMBL4507301 (2021), this text covers inhibition for one compound.

One may read the inhibition as the relative decrease from the control value, in per cent.

Assay [1] deals with Beta-1 adrenergic receptor (Homo sapiens) (UniProt P08588). Put plainly: beta1 Eurofins-Panlabs ligand profiling. Particulars: Compound concentration 10.0 uM.
Assay [2] deals with T1, Alpha-2C adrenergic receptor (Homo sapiens) (UniProt P18825).
T1 sequence (whole entry): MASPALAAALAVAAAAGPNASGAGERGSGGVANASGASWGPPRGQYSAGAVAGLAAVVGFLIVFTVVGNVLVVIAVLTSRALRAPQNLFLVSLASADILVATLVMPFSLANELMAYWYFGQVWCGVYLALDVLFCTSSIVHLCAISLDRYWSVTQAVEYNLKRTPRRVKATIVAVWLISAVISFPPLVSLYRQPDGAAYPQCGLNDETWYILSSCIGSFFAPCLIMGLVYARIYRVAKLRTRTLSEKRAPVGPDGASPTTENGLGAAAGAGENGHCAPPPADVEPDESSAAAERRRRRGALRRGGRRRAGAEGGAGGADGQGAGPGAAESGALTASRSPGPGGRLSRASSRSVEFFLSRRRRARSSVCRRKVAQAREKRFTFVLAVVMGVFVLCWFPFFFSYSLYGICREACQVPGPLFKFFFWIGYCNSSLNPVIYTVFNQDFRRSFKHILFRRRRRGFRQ
Put plainly: alpha2C Eurofins-Panlabs ligand profiling. Particulars: Compound concentration 10.0 uM.

Sequence of Beta-1 adrenergic receptor (Homo sapiens) (P08588 whole entry, looked up): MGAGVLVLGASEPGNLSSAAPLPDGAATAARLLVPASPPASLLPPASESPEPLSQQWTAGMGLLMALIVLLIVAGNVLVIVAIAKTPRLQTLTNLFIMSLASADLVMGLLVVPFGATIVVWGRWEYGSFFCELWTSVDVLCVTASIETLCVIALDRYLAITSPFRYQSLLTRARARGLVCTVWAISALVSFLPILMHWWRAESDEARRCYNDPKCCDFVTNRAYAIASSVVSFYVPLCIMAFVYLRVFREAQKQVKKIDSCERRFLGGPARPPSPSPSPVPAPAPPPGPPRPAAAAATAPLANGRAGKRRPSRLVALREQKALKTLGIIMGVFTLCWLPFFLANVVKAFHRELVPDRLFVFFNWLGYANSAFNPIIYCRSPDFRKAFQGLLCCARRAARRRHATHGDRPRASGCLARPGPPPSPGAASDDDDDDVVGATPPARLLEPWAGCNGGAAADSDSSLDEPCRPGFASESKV

In the case of `C[C@H](c1cccc(C#N)c1)n1cc(Cl)cc(C(N)=O)c1=N` [(R)-9s], the inhibition in assay [1] was -5%; in assay [2] it was 10%.
